Results reported in patent US20110251212A1, “PIPERAZINE DERIVATIVES” (SHIONOGI & CO., LTD., priority 2007, published 2011).

Legend:
[1] = target: T1, NMDA Receptor (NR1/NR2B Receptor) (Rattus norvegicus, UniProt P35439+Q00960); assay: Experiment of binding to NMDA receptor (NR1/NR2B receptor), [3H]-Ifenprodil competition, rat cerebral cortex membrane; conditions: [3H]-Ifenprodil 5 nM, GBR-12909 3 μM, ice temperature 120 minutes
T1 construct: this was used as a membrane specimen in an experiment; from tissue; host or cells: rat cerebral cortex membranes
T1 sequence (Q00960 27-1482, other chains not shown): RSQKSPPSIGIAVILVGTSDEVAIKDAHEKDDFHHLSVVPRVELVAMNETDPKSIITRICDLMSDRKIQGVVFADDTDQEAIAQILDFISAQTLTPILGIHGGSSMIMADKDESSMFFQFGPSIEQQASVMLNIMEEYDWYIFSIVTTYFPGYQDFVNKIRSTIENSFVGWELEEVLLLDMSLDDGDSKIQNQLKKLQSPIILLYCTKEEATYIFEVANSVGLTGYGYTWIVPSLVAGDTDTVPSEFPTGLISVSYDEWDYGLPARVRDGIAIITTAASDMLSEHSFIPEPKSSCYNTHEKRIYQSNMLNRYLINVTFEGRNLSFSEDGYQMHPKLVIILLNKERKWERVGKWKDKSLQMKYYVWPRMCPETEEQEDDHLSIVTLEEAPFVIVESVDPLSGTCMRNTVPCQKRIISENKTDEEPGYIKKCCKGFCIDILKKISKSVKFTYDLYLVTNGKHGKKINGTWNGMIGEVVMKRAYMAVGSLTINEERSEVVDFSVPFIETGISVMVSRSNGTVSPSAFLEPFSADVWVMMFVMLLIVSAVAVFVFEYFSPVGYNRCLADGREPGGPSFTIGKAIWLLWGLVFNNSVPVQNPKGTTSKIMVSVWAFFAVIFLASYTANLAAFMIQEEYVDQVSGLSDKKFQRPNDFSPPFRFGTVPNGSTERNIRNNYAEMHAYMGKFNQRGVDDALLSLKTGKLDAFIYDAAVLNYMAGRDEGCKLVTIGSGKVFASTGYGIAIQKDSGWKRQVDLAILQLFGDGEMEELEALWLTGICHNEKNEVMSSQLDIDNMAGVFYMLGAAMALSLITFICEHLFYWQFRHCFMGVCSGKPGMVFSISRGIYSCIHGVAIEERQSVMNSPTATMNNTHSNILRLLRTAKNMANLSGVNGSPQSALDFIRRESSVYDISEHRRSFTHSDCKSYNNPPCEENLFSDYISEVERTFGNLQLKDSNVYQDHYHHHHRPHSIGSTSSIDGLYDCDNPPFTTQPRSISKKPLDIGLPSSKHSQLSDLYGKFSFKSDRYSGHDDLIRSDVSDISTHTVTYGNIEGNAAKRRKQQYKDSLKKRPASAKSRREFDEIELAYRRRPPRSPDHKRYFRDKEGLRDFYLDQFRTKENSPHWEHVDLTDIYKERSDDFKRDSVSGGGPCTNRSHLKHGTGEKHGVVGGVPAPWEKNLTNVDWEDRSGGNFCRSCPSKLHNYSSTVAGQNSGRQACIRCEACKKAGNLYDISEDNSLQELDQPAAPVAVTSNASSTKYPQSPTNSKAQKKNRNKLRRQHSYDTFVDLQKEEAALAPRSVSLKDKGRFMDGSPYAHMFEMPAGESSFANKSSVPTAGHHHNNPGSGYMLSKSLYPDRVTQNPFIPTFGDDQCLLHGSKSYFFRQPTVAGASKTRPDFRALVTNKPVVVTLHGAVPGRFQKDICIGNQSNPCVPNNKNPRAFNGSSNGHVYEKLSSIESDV
Method: Using Ifenprodil which is a NR1/NR2B subtype receptor-specific antagonist as a ligand, an experiment of receptor competition with a test compound was performed.
A male Slc:Wistar rat was used as an animal, a decapitated brain was isolated, and cerebral cortex was fractionated. The cerebral cortex was homogenized with a 20-fold amount of an ice-cooled 50 mM Tris/HCl buffer (pH 7.4), and centrifuged at 4° C. and 27,500×g for 10 minutes. The resulting precipitate was suspended in the same buffer, and the suspension was centrifuged again. This procedure was repeated three times, and the resulting precipitate was suspended in a buffer, and stored at −80° C. Immediately before an experiment, the frozen suspension was thawed at room temperature, and centrifuged at 4° C. and 27,500×g for 10 minutes, and the resulting precipitate was suspended in a buffer. The suspension was further diluted 10-fold with a buffer, and this was used as a membrane specimen in an experiment.
In a binding experiment, to 470 μl of the membrane specimen were added 10 μl of different concentrations of a test compound, 10 μl of a labeled ligand [3H]-Ifenprodil and 10 μl of GBR-12909, and this was incubated at an ice temperature for 120 minutes. A concentration of [3H]-Ifenprodil of the labeled ligand was finally 5 nM, and a concentration of GBR-12909 was finally 3 μM. For measuring a total binding amount, DMSO as a solvent was used and, for measuring a non-specific binding amount, 100 μM of Ifenprodil was used. In addition, GBR-12909 was added in order to block binding of [3H]-Ifenprodil to a non-polyamine-sensitive site. After incubation, a bound body and a free body were separated using a Whatman GF/C filter (manufactured by Whatman), and the filter was washed with 2.5 ml of an ice-cooled buffer four times. The filter was immersed in a liquid scintillation (Clear-sol I, manufactured by Nacalai tesque) in a vial bottle, and radioactivity (dpm) was measured with a liquid scintillation counter. From a measured value, a binding inhibition rate (%) was obtained by the following equation, and a dose at which binding is inhibited 50% (IC50) was calculated. A formula of GBR-12909 (Vanoxerine) is shown below.
Binding inhibition rate(%)=100−[(binding amount in presence of test compound−non-specific amount)/(total binding amount−non-specific binding amount)]×100

[2] = target: T2, mouse NMDA receptor (NR1 subunit and NR2B subunit co-expressed in HEK293 cells) (Mus musculus, UniProt P35438+Q01097); assay: Expression of NMDA receptor and measurement of Ca ion flow in amount (HEK293 cells, Fluo-3/AM, FDSS3000); type: cell-based; conditions: Ca ion flow in induced with glutamic acid 20 μM/glycine 2 μM, read-out: Ca2+ 1050
T2 construct: expressed in transfected cells; host or cells: HEK293 cells, transient, pcDNA 3.1 plasmids
T2 sequence (Q01097 27-1482, other chains not shown): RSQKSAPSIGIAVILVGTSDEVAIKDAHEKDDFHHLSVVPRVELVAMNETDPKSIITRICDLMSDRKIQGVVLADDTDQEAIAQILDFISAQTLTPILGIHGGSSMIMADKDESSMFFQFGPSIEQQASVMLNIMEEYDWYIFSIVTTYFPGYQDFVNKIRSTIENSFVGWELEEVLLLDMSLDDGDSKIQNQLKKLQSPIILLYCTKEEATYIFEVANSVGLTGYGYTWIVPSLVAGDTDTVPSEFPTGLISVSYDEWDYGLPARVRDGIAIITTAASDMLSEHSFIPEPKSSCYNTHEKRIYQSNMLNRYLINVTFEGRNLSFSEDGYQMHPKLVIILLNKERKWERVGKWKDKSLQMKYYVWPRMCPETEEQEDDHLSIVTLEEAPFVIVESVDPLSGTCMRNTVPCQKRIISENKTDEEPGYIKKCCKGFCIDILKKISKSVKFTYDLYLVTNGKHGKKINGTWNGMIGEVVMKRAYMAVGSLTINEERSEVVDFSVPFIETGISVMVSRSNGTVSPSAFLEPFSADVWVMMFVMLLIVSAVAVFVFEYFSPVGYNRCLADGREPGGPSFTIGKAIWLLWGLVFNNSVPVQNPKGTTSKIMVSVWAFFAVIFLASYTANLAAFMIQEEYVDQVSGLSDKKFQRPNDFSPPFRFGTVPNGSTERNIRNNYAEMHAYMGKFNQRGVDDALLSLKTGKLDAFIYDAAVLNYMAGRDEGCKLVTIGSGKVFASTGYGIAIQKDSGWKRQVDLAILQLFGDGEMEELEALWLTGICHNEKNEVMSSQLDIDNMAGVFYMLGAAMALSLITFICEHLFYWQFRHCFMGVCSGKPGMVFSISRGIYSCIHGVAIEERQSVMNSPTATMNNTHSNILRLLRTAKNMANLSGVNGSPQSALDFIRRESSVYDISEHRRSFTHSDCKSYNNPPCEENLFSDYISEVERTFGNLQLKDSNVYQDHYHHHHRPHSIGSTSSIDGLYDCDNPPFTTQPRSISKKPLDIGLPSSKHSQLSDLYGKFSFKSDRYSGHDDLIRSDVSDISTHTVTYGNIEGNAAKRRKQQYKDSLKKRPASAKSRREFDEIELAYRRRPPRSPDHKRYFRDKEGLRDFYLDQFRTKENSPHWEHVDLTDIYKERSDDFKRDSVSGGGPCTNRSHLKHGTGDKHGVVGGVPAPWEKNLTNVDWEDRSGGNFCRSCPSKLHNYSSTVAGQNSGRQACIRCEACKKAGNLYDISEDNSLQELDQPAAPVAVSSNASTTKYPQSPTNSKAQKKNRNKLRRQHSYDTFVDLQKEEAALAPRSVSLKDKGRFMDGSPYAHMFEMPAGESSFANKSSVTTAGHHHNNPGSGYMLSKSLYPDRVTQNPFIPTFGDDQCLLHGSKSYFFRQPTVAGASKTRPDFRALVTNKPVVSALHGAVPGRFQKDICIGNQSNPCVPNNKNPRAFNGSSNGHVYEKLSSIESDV
Method: Test Example 2 Expression of NMDA receptor and measurement of Ca ion flow in amount
A complementary DNA (cDNA) of a mouse NMDA receptor subunit was transiently introduced into HEK293 cells and, after one day from introduction, change in a glutamic acid/glycine-induced intracellular Ca amount was measured using a Ca ion reactive fluorescent dye.
HEK293 cells were cultured and passaged using a modified Dulbecco's Eagle medium (DMEM, low glucose).
20,000/well of HEK293 cells were seeded on a 96-well plate, a NR1 subunit and a NR2B subunit of a NMDA receptor incorporated into pcDNA 3.1 plasmid were transiently introduced into cells, and co-expression of subunits was performed. An introduction amount of a DNA was such that the NR1 subunit was 0.025 μg, and the NR2B subunit was 0.075 μg per well. For cells after introduction, cell death was inhibited using 50 μM of a NMDA receptor antagonist MK-801.
For adjusting a test compound and washing cells, Krebs Ringer Hepes buffer (KRH, Ca: 5 mM) was used.
One day after introduction, the NMDA receptor antagonist MK-801 was washed off using the KRH buffer, and a Ca ion indicative fluorescent dye Fluo-3/AM was made to be taken into cells. Flow in of a Ca ion was induced with glutamic acid 20 μM/glycine 2 μM. Change in a fluorescence amount due to intracellular Ca ion flow in was measured at excitation 480 nm using a fluorescence imaging system FDSS3000.
From a measured value of the test compound, a Ca ion flow in inhibitory rate (%) was obtained by the following equation, and a dose at which flow in is 50% inhibited (IC50) was calculated.
Ca ion flow in inhibitory rate(%)=100−[(fluorescence amount in presence of test compound−background fluorescence amount)/(total fluorescence amount[…]background fluorescence amount)]×100

| Structure (SMILES) | IC50 [1] | IC50 [2] | melting point |
| --- | --- | --- | --- |
| O=C(CNc1ccc2[nH]c(=O)oc2c1)N1CCN(c2ccc(Cl)c(F)c2)CC1 [Compound I-1] | 0.149 µM | 49 nM | 136 to 138 °C |
| CC(Nc1ccc2[nH]c(=O)oc2c1)C(=O)N1CCN(c2ccc(Cl)c(F)c2)CC1 (stereo not drawn) [Compound I-4] | – | – | 223 to 225 °C |
| C[C@@H]1CN(c2ccc(F)cc2)C[C@H](C)N1C(=O)C(=O)Nc1ccc2[nH]c(=O)oc2c1 [Compound I-5] | – | – | 245 to 246 °C |
| C[C@@H]1CN(c2ccc(Cl)c(F)c2)CCN1C(=O)CNc1ccc2[nH]c(=O)oc2c1 [Compound I-6] | 0.026 µM | 20 nM | 224 to 226 °C |
| COc1c(F)cc(N2CCN(C(=O)CNc3ccc4[nH]c(=O)oc4c3)CC2)cc1F [Compound I-7] | – | 89 nM | 194 to 196 °C |

More lines, now with the values ahead:

| IC50 [1] | IC50 [2] | melting point | Structure (SMILES) |
| --- | --- | --- | --- |
| 0.04 µM | 14 nM | 123 to 124 °C | Cc1cc(N2CCN(C(=O)C(=O)Nc3ccc4[nH]c(=O)oc4c3)[C@H](C)C2)ccc1Cl [Compound I-40] |
| – | – | 112 to 114 °C | Cc1cc(N2CCN(C(=O)CNc3ccc4[nH]c(=O)oc4c3)C[C@H]2C)ccc1Cl [Compound I-63] |
| – | – | 223 to 225 °C | O=C(CN1CCN(c2ccc(Cl)cc2)CC1=O)Nc1ccc2[nH]c(=O)oc2c1 [Compound I-67] |
